This passage reports inhibition and IC50 results from US9675606B2, “2-amino-3-(imidazol-2-yl)-pyridin-4-one derivatives and their use as VEGF receptor kinase inhibitors” (SANOFI, priority 2011, dated 2017).

In general, inhibition refers to the relative decrease from the control value, in per cent. The IC50 is the midpoint of a concentration-inhibition curve.

Each structure is given as a SMILES string. Read-outs that look alike come from different tables or passages of the source.

Experiment [1] deals with T1, VEGFR-3 (Homo sapiens, UniProt P35916).
T1 construct: expressed in transfected cells; host or cells: HEK293T cells, transient transfection with Fugene-6
T1 sequence (P35916 25-1363, species assumed): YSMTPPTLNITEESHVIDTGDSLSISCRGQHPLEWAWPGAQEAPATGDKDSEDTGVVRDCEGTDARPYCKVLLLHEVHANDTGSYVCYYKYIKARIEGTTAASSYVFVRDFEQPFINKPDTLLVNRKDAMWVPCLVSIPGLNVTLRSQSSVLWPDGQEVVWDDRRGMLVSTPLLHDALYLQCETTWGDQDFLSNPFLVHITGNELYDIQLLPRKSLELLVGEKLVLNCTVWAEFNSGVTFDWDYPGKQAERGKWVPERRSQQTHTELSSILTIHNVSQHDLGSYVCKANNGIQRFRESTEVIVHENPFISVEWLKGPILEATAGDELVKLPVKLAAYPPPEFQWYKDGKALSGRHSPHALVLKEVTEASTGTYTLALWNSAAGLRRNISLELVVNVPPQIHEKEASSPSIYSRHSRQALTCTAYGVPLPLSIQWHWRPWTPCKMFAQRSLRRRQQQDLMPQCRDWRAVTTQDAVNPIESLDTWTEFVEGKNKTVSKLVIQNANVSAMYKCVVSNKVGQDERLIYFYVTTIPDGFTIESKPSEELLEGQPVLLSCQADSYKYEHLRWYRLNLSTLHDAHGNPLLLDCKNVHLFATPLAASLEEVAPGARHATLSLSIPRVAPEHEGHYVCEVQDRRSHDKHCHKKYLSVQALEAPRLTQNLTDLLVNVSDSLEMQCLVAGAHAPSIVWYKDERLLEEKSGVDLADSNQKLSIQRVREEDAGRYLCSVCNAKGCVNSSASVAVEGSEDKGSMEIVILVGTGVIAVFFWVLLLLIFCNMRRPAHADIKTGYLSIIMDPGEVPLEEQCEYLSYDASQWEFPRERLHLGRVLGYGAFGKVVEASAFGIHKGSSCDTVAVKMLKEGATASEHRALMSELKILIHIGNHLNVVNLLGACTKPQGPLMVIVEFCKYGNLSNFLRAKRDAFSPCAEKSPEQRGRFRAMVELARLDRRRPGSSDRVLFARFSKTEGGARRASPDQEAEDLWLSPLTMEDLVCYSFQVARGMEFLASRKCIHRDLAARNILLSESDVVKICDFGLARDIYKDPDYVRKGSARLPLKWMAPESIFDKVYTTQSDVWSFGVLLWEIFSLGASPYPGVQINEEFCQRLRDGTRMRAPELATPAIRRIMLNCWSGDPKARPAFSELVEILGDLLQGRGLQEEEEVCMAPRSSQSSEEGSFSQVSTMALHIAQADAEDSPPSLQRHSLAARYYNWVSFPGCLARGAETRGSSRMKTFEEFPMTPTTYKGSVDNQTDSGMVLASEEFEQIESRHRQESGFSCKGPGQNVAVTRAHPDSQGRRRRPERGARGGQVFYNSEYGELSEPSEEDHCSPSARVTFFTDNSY
Briefly: Ex vivo assay: VEGFR-3 autophosphorylation in HEK cells incubated with plasma of mice dosed p.o. Particulars: HEK293, mouse, transfected HEK cells incubated with plasma (10%), read-out: Ex vivo inhibition (%) At the time. Also noted: species or system male Balb/c mice. Here is the method:
Protocol for administration of the products to the mice:
The products are prepared in a mortar with 0.5% Tween 80 and 0.6% methylcellulose qs final volume. The suspensions are administered by gavage (10 ml/kg) to male Balb/c mice 8 to 15 weeks old. Three hours or 6 hours after single oral administrations of 30 mg/kg, animals were anaesthetized with pentobarbital and blood samples (400 μL) were collected from cava vein and transferred into glass tubes containing lithium heparin. After centrifugation (1500-2000 g for 10 minutes), plasma samples were frozen at a temperature close to −20° C. until analysis.
In order to detect the ex vivo activity of the products in the plasmas, we have used the autophosphorylation assay in HEK cells described earlier. For this purpose, transfected cells were incubated with plasma (10%) instead of compounds. Results are expressed as percent of inhibition of VEGFR-3 autophosphorylation in comparison to untreated cells (maximum autophosphorylation) and to untransfected cells (background).
Results are expressed as a percentage of inhibition of VEGFR-3 auto-phosphorylation of in HEK cells, in presence of a plasma sample collected (at a time), after per os (p.o.) administration of compounds. In order to evaluate the increase of this activity for compounds of the invention, a comparison with compounds of the prior art (WO 2009/007535) and subjected to the same measurement is made in table 3.

The target of experiment [2] is T1, VEGFR-3. Briefly: Effect of compounds on VEGFR-3 auto-phosphorylation in HEK cells (ELISA). The settings on record: autophosphorylation of VEGFR-3-Flag overexpressed in HEK293T cells, 1 h incubation with compound. It is filed as cell-based. Here is the method: Effect of Compounds on VEGFR-3 Auto-Phosphorylation in HEK Cells
The effects of compounds in blocking VEGFR-3 autophosphorylation were quatified by ELISA after Overexpression of VEGFR-3 in HEK cells. HEK293T cells were maintained in MEM supplemented with 10% foetal calf serum (FCS) and glutamine. The day before transfection, […] were seeded on 48 wells plates and transfection was done using Fugene-6 (Roche, Basel). Fugene-6 (18 μL) was preincubated for 5 min with 282 μl of optimem. Then 3 μg DNA corresponding VFGR-3-Flag was added and left at room temperature during 10 min before distributing 200 μl on HEK cells. After 24 h, the medium was removed and replaced by a new one without serum and incubated for 1 h with different concentrations (ranging from 3 to 1000 nM) of each compound. After additional 30 min incubation with Orthovanadate (0.4 mM), cells were washed with cold PBS supplemented by orthovanadate and then lysed with 300 μl of RIPA buffer. Lysates were then centrifuged during 10 min at 10000 g. Supernatants (75 μl) were distributed in duplicate on 96 well plate precoated with the anti-Flag and left during 1 hour at room temperature. After 3 washes with TBS buffer containing 0.5% tween 20, the anti-phospho-tyrosine conjugated to the HRP was added and incubated for 1 hour at room temperature. Wells were then washed 3 times with TBS buffer containing tween 20 (0.5%) and MgCl2 (2 mM). The reaction was stopped with 50 μl of H2SO4 (2 N) and the signal was read at Envision at 485 and 530.
The concentration-response curves were analyzed with internal software Biost@t-SPEED v2.0 using the 4-parameter logistic model according to Ratkovsky and Reedy (Ratkovsky D A., Reedy T J. Choosing near-linear parameters in the four parameters logistic model radioligands and related assays. Biometrics 1986 September 42(3):575-82.)
For orientation: ELISA stands for enzyme-linked immunosorbent assay.

Where [3] appears, read: 3 h after single oral administration of 30 mg/kg to male Balb/c mice.
Where [4] appears, read: 6 h after single oral administration of 30 mg/kg to male Balb/c mice.

For the molecule `CCn1c(N)c(-c2ncc[nH]2)c(=O)c2ccc(C#CC(C)(O)CO)nc21` (racemic) [Compound 3, 2-Amino-7-(3,4-dihydroxy-3-methyl-but-1-ynyl)-1-ethyl-3-(1H-imidazol-2-yl)-1H-[1,8]naphthyridin-4-one], on VEGFR-3 [1] (setting [3]), the inhibition at 30 mg/kg is 51%. Moreover, the 50% inhibitory concentration (IC50) at VEGFR-3 [2] turned out to be 125 nM.

`CCn1c(N)c(-c2ncc[nH]2)c(=O)c2ccc(C#CC(C)(O)CC)nc21` (racemic) [Compound 16, 2-Amino-1-ethyl-7-(3-hydroxy-3-methylpent-1-yn-1-yl)-3-(1H-imidazol-2-yl)-1,8-naphthyridin-4(1H)-one]: at VEGFR-3 [1] (setting [3]), the inhibition at 30 mg/kg turned out to be 48%. In addition, the IC50 at VEGFR-3 [2] was 119 nM.

In the case of `CCn1c(N)c(-c2ncc[nH]2)c(=O)c2ccc(C#CC(C)(O)c3ccccc3)nc21` (racemic) [Compound 17, 2-Amino-1-ethyl-7-(3-hydroxy-3-phenylbut-1-yn-1-yl)-3-(1H-imidazol-2-yl)-1,8-naphthyridin-4(1H)-one], the inhibition at 30 mg/kg on VEGFR-3 [1] (setting [4]) turned out to be 37%. Also, the IC50 at VEGFR-3 [2] is 13 nM.

On to `CCn1c(N)c(-c2ncc[nH]2)c(=O)c2ccc(C#CC(C)O)nc21` (racemic) [Compound 22, 2-Amino-1-ethyl-7-(3-hydroxybut-1-yn-1-yl)-3-(1H-imidazol-2-yl)-1,8-naphthyridin-4(1H)-one], for which the inhibition at 30 mg/kg on VEGFR-3 [1] (setting [4]) worked out at 26%. In addition, the IC50 on VEGFR-3 [2] worked out at 38 nM.

`CCn1c(N)c(-c2ncc[nH]2)c(=O)c2ccc(C#C[C@@](C)(O)COC)nc21` [Compound 1, 2-Amino-1-ethyl-7-((3R)-3-hydroxy-4-methoxy-3-methyl-but-1-ynyl)-3-(1H-imidazol-2-yl)-1H-[1,8]naphthyridin-4-one]: the inhibition at 30 mg/kg on VEGFR-3 [1] (setting [4]) was 83%. Besides, the IC50 on VEGFR-3 [2] is 25 nM.

Take `CCn1c(N)c(-c2nc(C)c[nH]2)c(=O)c2ccc(C#C[C@@](C)(O)COC)nc21` [Compound 5, 2-Amino-1-ethyl-7-[(3R)-3-hydroxy-4-methoxy-3-methylbut-1-yn-1-yl]-3-(4-methyl-1H-imidazol-2-yl)-1,8-naphthyridin-4(1H)-one]: at VEGFR-3 [1] (setting [4]), the inhibition at 30 mg/kg stood at 86%. In addition, the IC50 at VEGFR-3 [2] worked out at 45 nM.

Regarding `CCn1c(N)c(-c2ncc[nH]2)c(=O)c2ccc(C#CC3(O)CCC3)nc21` [Compound 13, 2-Amino-1-ethyl-7-[(1-hydroxycyclobutyl)ethynyl]-3-(1H-imidazol-2-yl)-1,8-naphthyridin-4(1H)-one], the inhibition at 30 mg/kg on VEGFR-3 [1] (setting [4]) came to 23%. At VEGFR-3 [2], the IC50 is 41 nM.
